# Reference: ChEMBL document CHEMBL1158877, “Sesquiterpenoids of the drimane class from a sponge of the genus Dysidea” (J Nat Prod, 1997)
# Activity calls are given as the source filed them. No cut-off for these calls is given here.
# Tests used:
# [1] = system: Photobacterium leiognathi; assay: Antimicrobial activity against Photobacterium leiognathi at 10 ug/ml by paper disk method; type: functional
# [2] = system: Photobacterium leiognathi; assay: Antimicrobial activity against Photobacterium leiognathi by bioluminescence; type: functional, organism-based
# [3] = Inhibition of PLA2
# [4] = Inhibition of Na+/K+-ATPase
SMILES,Activity [3],Activity [4],IC50 [4] [µM],IC50 [2] [µM],IC50 [3] [µM],Activity [1],Activity [2],zone of inhibition at 10 µg/mL ([1]; read-out: IZ) [mm]
CC(=O)O[C@@H]1OC(=O)C2=C1[C@@]1(C)CCCC(C)(C)[C@@H]1CC2,inactive,–,98,–,–,inactive,inactive,–
CC1(C)CCC[C@]2(C)[C@@H](C=O)C(C=O)=CC[C@@H]12 [POLYGODIAL],inactive,–,82,11.4,–,–,–,8
CC1(C)CCC[C@]2(C)[C@H]3C(=O)OC[C@@H]3CC[C@@H]12,–,–,45,90,113,inactive,–,–
CC1(C)CCC[C@]2(C)/C(=C/O)C(=O)CC[C@@H]12,inactive,inactive,–,–,–,inactive,inactive,–

# Further lines, with some results ahead:
Activity [3],Activity [4],IC50 [4] [µM],IC50 [2] [µM],IC50 [3] [µM],SMILES,Activity [1],Activity [2],zone of inhibition at 10 µg/mL ([1]; read-out: IZ) [mm]
inactive,inactive,–,–,–,CO[C@@H]1O[C@H](O)[C@@]2(O)CC[C@H]3C(C)(C)CCC[C@]3(C)[C@@H]12,inactive,inactive,–
inactive,inactive,–,90,–,CC(=O)O[C@@H]1OC=C2CC[C@H]3C(C)(C)CCC[C@]3(C)[C@H]21,inactive,–,–
inactive,inactive,–,90,–,CO[C@@H]1OC[C@H]2CC[C@H]3C(C)(C)CCC[C@]3(C)[C@H]21,inactive,–,–
inactive,inactive,–,90,–,CC(=O)OC[C@H]1[C@@H](OC(C)=O)CC[C@H]2C(C)(C)CCC[C@]12C,inactive,–,–
inactive,inactive,–,–,–,CC(=O)O[C@@H]1OC(=O)C2=CC[C@H]3C(C)(C)CCC[C@]3(C)[C@H]21,inactive,inactive,–
inactive,inactive,–,–,–,CC(=O)OC[C@H]1CC[C@H]2C(C)(C)CCC[C@]2(C)[C@H]1COC(C)=O,inactive,inactive,–
